What was measured:
SCoV2 PLpro [1] = target: T1, SCoV2 PLpro (Severe acute respiratory syndrome coronavirus 2, UniProt P0DTD1); test: biochemical; assay type: biochemical, SARS-CoV-2
SCoV2 PLpro [2] = target: T1, SCoV2 PLpro; assay type: cell-based, SARS-CoV-2; conditions: 10 μM, western blot

Question: vitamin B12 was tested. Which “inhibition of SCoV2 PLpro” value (SCoV2 PLpro [1]; 10 µM) did it give?
Answer: over 50%

Question: For `C[C@H](c1cccc2ccccc12)N1CCC(C(=O)NCc2cc(F)cc(NC(=O)N3CCN(C)CC3)c2)CC1` [Inhibitor 19, (R)-N-(3-fluoro-5-((1-(1-(naphthalen-1-yl)ethyl)piperidine-4-carboxamido)methyl)phenyl)-4-methylpiperazine-1-carboxamide], which “inhibition of SCoV2 PLpro (nsp1-nsp2 cleavage) in 293T cells” value (SCoV2 PLpro [2]) is on record?
Answer: significantly inhibited

Question: For `O=C(O)C(=O)c1cn(Cc2ccccc2)c2ccc(-c3ccc(OC(F)(F)F)cc3)cc12` [tiplaxtinin], which “inhibition of SCoV2 PLpro” value (SCoV2 PLpro [1]; 10 μM compound, probe 7) is on record?
Answer: over 50%

Question: With `CC(C)c1cc(C(C)C)c(CC(=O)NS(=O)(=O)Oc2c(C(C)C)cccc2C(C)C)c(C(C)C)c1` [avasimibe] as the compound, how does the inhibition at 10 µM (SCoV2 PLpro [1]; read-out: inhibition of SCoV2 PLpro) read?
Answer: > 50%
